Structures can show the parent of a compound that is named as a salt. Where two headings read alike, the source gives them in different places.
Columns and labels:
[1] = system: NCI-H292 lung cancer cells; test: FDA drug screening, complete media vs cholesterol-free media without statin (TABLE 1); format: cell-based, human
[2] = system: NCI-H292 lung cancer cells; test: FDA drug screening, complete media vs cholesterol-free media with simvastatin (TABLE 2); format: cell-based, human
[3] = Complete minus Cholesterol-free, >0 enhanced anti-cancer activity, about 0 neutral, <0 antagonist
[4] = NCI-H292 cells, cholesterol-free media without statin, FDA drug library screen
[5] = NCI-H292 cells, complete media, FDA drug library screen
[6] = NCI-H292 cells, complete media, FDA drug library screen (TABLE 2)
[7] = NCI-H292 cells, FDA drug library screen, complete media
[8] = NCI-H292 cells, drug in cholesterol-free media with simvastatin 0.04 μM
[9] = NCI-H292 cells, drug in complete media
[10] = complete media vs cholesterol-free media + simvastatin (0.04 μM), >0 enhanced anti-cancer activity, about 0 neutral, <0 antagonist
[11] = NCI-H292 cells, cholesterol-free media without statin
[12] = complete vs cholesterol-free media, greater than 0 enhanced anti-cancer activity, about 0 neutral, below 0 antagonists
[13] = complete media minus cholesterol-free media + simvastatin, >0 enhanced anti-cancer activity, about 0 neutral, <0 antagonist
[14] = complete vs cholesterol-free media, […]
[15] = NCI-H292 cells, FDA drug library screen, cholesterol-free media with simvastatin 0.04 μM
[16] = NCI-H292 cells, FDA library drug in cholesterol-free media with simvastatin 0.04 μM
[17] = NCI-H292 cells, FDA library drug in complete media
[18] = complete vs cholesterol-free media, >0 enhanced anti-cancer activity, about 0 neutral, <0 antagonist

With `O=c1[nH]c(=O)n([C@H]2C[C@H](O)[C@@H](CO)O2)cc1F` [Floxuridine] the Difference [1, 3] was −0.01, the Cholesterol-free [1, 4] was 0.09159 and the Complete [1, 5] was 0.08047. For the same compound, the “Cholesterol-free media + simvastatin (0.04 μM)” value ([2]; NCI-H292 cells, cholesterol-free media with simvastatin 0.04 μM, FDA drug library screen (TABLE 2)) was 0.09098, the “Complete Media” value [2, 6] was 0.02907 and the Difference ([2]; complete media minus cholesterol-free media + simvastatin (0.04 μM), >0 enhanced anti-cancer activity, about 0 neutral, <0 antagonist) was −0.06.
Compound `Cc1cc2nc3c(=O)[nH]c(=O)nc-3n(C[C@H](O)[C@H](O)[C@H](O)COP(=O)(O)OP(=O)(O)OC[C@H]3O[C@@H](n4cnc5c(N)ncnc54)[C@H](O)[C@@H]3O)c2cc1C` has a Difference ([1]; Complete minus Cholesterol-free, greater than 0 enhanced anti-cancer activity, about 0 neutral, below 0 antagonist) of −0.12, a Cholesterol-free ([1]; NCI-H292 cells, FDA drug library screen, cholesterol-free media without statin) of 0.9242 and a Complete [1, 7] of 0.8033. The “Cholesterol-free media + simvastatin (0.04 μM)” value [2, 8] was 1.111, the “Complete Media” value [2, 9] was 0.8891 and the Difference [2, 10] was −0.22.
Work on `NS(=O)(=O)c1cc2c(cc1Cl)NC(C(Cl)Cl)NS2(=O)=O` (stereo not shown) [Trichlormethiazide] yielded a Cholesterol-free [1, 11] of 1.351, a Complete ([1]; NCI-H292 cells, complete media) of 0.9482 and a Difference [1, 12] of −0.40. For the same compound, the “Cholesterol-free media + simvastatin (0.04 μM)” value ([2]; NCI-H292 cells, cholesterol-free media with simvastatin 0.04 μM, cell growth value in FDA drug screen) was 1.02, the “Complete Media” value ([2]; NCI-H292 cells, complete media, cell growth value in FDA drug screen) was 1.045 and the Difference [2, 13] was 0.02.
`C=CC[N+]1([C@H]2C[C@H]3[C@@H]4CC[C@H]5C[C@H](O)[C@@H](N6CCOCC6)C[C@]5(C)[C@H]4CC[C@]3(C)[C@H]2OC(C)=O)CCCC1.[Br-]` [Rocuronium (Bromide)] gave a Cholesterol-free [1] of 0.9624, a Complete [1] of 0.9092 and a Difference [1] of −0.05. For the same compound, the “Cholesterol-free media + simvastatin (0.04 μM)” value [2] was 0.8493, the “Complete Media” value [2] was 1.097 and the Difference [2] was 0.25.
For `CN(C)C(=O)Oc1cccc([N+](C)(C)C)c1.COS(=O)(=O)[O-]` [Neostigmine (methyl sulfate)], the Cholesterol-free [1, 11] was 1.718, the Complete ([1]; NCI-H292 cells, complete media) was 1.281 and the Difference [1, 14] was −0.44. The “Cholesterol-free media + simvastatin (0.04 μM)” value [2, 15] was 0.8206, the “Complete Media” value [2, 7] was 1.308 and the Difference ([2]; complete media minus cholesterol-free media + simvastatin, […]) was 0.49.
`COc1cccc(OC)c1C(=O)N[C@@H]1C(=O)N2[C@@H]1SC(C)(C)[C@@H]2C(=O)O` [Methicillin (sodium salt)] showed a Difference [1, 3] of −0.06, a Cholesterol-free [1, 4] of 1.114 and a Complete [1, 5] of 1.051. The “Cholesterol-free media + simvastatin (0.04 μM)” value [2, 16] was 1.829, the “Complete Media” value [2, 17] was 1.406 and the Difference [2, 10] was −0.42.
For `c1ccc([C@H]2CN3CCSC3=N2)cc1` [Levamisole (hydrochloride)], the Cholesterol-free [1, 4] was 1.001, the Complete [1, 5] was 1.665 and the Difference [1, 18] was 0.66. For the same compound, the “Cholesterol-free media + simvastatin (0.04 μM)” value [2, 16] was 1.301, the “Complete Media” value [2, 17] was 0.9046 and the Difference [2, 10] was −0.40.
Compound `CN1CCN(c2cc3c(nn2)Oc2ccccc2N3C)CC1.Cl.Cl.O` [Azaphen (dihydrochloride monohydrate)] has a Cholesterol-free [1, 11] of 1.204, a Complete ([1]; NCI-H292 cells, complete media) of 0.7783 and a Difference [1, 14] of −0.43. The “Cholesterol-free media + simvastatin (0.04 μM)” value [2, 15] was 1.02, the “Complete Media” value [2, 7] was 0.9251 and the Difference ([2]; complete media vs cholesterol-free media + simvastatin (0.04 μM), […]) was −0.09.
In the case of Gadopentetate (dimeglumine), the Difference ([1]; Complete minus Cholesterol-free, […]) is reported as −0.06, the Cholesterol-free [1, 4] is reported as 1.132 and the “Complete Media” value [2, 6] is reported as 1.1. For the same compound, the Difference ([2]; complete media minus cholesterol-free media + simvastatin (0.04 μM), […]) was −0.05.
`Cc1cc(-c2ccc(/N=N/c3ccc4c(S(=O)(=O)O)cc(S(=O)(=O)O)c(N)c4c3O)c(C)c2)ccc1/N=N/c1ccc2c(S(=O)(=O)O)cc(S(=O)(=O)O)c(N)c2c1O` [Evans Blue] was tested, and the Difference [1, 3] was −0.05, the Cholesterol-free [1, 4] was 1.165 and the Complete [1, 5] was 1.11. The “Cholesterol-free media + simvastatin (0.04 μM)” value [2, 8] was 1.142, the “Complete Media” value [2, 9] was 0.9534 and the Difference [2, 10] was −0.19.
For `CC1=C(C)C(=O)C(C(CCCCCC(=O)O)c2ccccc2)=C(C)C1=O` (stereo not shown) [Seratrodast], the Difference [1, 3] was 0.00, the Cholesterol-free [1, 4] was 0.9876 and the Complete [1, 5] was 0.9904. For the same compound, the “Cholesterol-free media + simvastatin (0.04 μM)” value [2, 15] was 0.9305, the “Complete Media” value [2, 7] was 1.335 and the Difference [2, 13] was 0.40.
Work on `O=c1n(CCCN2CCN(c3cccc(Cl)c3)CC2)nc2ccccn12` [Trazodone (hydrochloride)] yielded a Cholesterol-free [1, 11] of 1.4, a Complete ([1]; NCI-H292 cells, complete media) of 1.032 and a Difference [1, 12] of −0.37. The “Cholesterol-free media + simvastatin (0.04 μM)” value [2, 15] was 0.8105, the “Complete Media” value [2, 7] was 1.053 and the Difference [2, 13] was 0.24.
`O=C[C@H](O)[C@@H](O)[C@H](O)CO` (racemic) [DL-Xylose] showed a Difference ([1]; Complete minus Cholesterol-free, greater than 0 enhanced anti-cancer activity, about 0 neutral, below 0 antagonists) of −0.70, a Cholesterol-free ([1]; NCI-H292 cells in cholesterol-free media without statin) of 1.5 and a Complete ([1]; NCI-H292 cells in complete media) of 0.7993. The “Cholesterol-free media + simvastatin (0.04 μM)” value [2, 15] was 0.8322, the “Complete Media” value [2, 7] was 1.203 and the Difference [2, 13] was 0.37.
With `O=C1NC(=O)C(c2ccccc2)(c2ccccc2)N1` [Phenytoin] the Cholesterol-free [1, 4] was 0.8044, the Complete [1, 5] was 0.8965 and the Difference [1, 18] was 0.09. The “Cholesterol-free media + simvastatin (0.04 μM)” value [2, 15] was 1.316, the “Complete Media” value [2, 7] was 1.23 and the Difference [2, 10] was −0.09.
